In the supplement of paper PMC11208160:

assay: recombinant UMI read abundance after kanamycin selection (control-corrected) (log10(CPM+1)); higher = more efficient recombination; extreme values may be limits of the assay; sequences stand for … in AGTGCAGAGAAAATCGGCCAGTTTTCTCTGCCTGCAGTCCGCATGCCGTGGGACCCCTTGGGTTCTAACCTGTTGCCTAGATTTATGCAGCGGACTGCCTTTCTCCCAAAGTGATAAACCGG…AGGTTGGTTTCACT; site = the 11-nt donor
Procedure, shortened: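 Sequenced counts of recombinant UMIs were turned into CPM, averaged across replicates and scaled with control-derived factors. The reported figure is log10(CPM+1). Those UMIs, each 12 nt long, tagged donor and donor-binding-loop pairs on a plasmid with a promoterless kanamycin gene, screened as a pool in Escherichia coli with IPTG (0.07 mM) plus kanamycin or without selection.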
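Further: IS621 bridge recombinase in Escherichia coli cells against a fixed T5 target plasmid.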

Row | Sequence | recombinant UMI read abundance (log10)
1 | CTACAGACATGGACCGGTTTTCCCGGTAATCCGTATTTGAG (site CTACAGACTCT) | 1.81
2 | CTACGGCCATGGACCGGTTTTCCCGGTAATCCGTATTTGCC (site CTACGGCCTGG) | 0.363
3 | CTACGGGCATGGACCGGTTTTCCCGGTAATCCGTATTTGAG (site CTACGGGCTCT) | 1.72
4 | CTACTACCATGGACCGGTTTTCCCGGTAATCCGTATTTGCT (site CTACTACCTAG) | 0.232
5 | CTACTACCATGGACCGGTTTTCCCGGTAATCCGTATTTGCT (site CTCCTACCTAG) | 0.00711
6 | CTACTACCATGGACCGGTTTTCCCGGTAATCCGTATTTGCT (site CTGCTACCTAG) | 0.00524
7 | CTACTACCATGGACCGGTTTTCCCGGTAATCCGTATTTGCT (site CTTCTACCTAG) | 0
8 | CTACTACCATGGACCGGTTTTCCCGGTAATCCGTATTTGGA (site CTACTAACTTC) | 0.0163
9 | CTACTACCATGGACCGGTTTTCCCGGTAATCCGTATTTGGA (site CTACTACCTTC) | 0.00874
10 | CTACTACCATGGACCGGTTTTCCCGGTAATCCGTATTTGGA (site CTACTAGCTTC) | 0.00519
11 | CTACTACCATGGACCGGTTTTCCCGGTAATCCGTATTTGGA (site CTACTATCTTC) | 1.1
12 | CTACTAGCATGGACCGGTTTTCCCGGTAATCCGTATTTGAA (site CTACTAGCTTT) | 1.95
13 | CTACTATCATGGACCGGTTTTCCCGGTAATCCGTATTTGAC (site CTAATATCTGT) | 0
14 | CTACTATCATGGACCGGTTTTCCCGGTAATCCGTATTTGAC (site CTACTATCTGT) | 2.69
15 | CTACTATCATGGACCGGTTTTCCCGGTAATCCGTATTTGAC (site CTAGTATCTGT) | 0
16 | CTACTATCATGGACCGGTTTTCCCGGTAATCCGTATTTGAC (site CTATTATCTGT) | 0.0113
17 | CTAGAACCATGGACCGGTTTTCCCGGTAATCCGTATTTGAG (site CTAGAACCTCT) | 0.09
18 | CTAGCAGCATGGACCGGTTTTCCCGGTAATCCGTATTTGAC (site CTAGCAGCTGT) | 3.18
19 | CTAGCAGCATGGACCGGTTTTCCCGGTAATCCGTATTTGAC (site CTAGTATCTGT) | 0

Row | Sequence | recombinant UMI read abundance (log10)
20 | CTAGCATCATGGACCGGTTTTCCCGGTAATCCGTATTTGAA (site CTAGCATCTTT) | 2.86
21 | CTAGCATCATGGACCGGTTTTCCCGGTAATCCGTATTTGAA (site CTAGTATCTGT) | 0
22 | CTAGCGTCATGGACCGGTTTTCCCGGTAATCCGTATTTGGA (site CTAGCGTCTTC) | 2.45
23 | CTAGGCACATGGACCGGTTTTCCCGGTAATCCGTATTTGCA (site CTAGGCACTTG) | 1.67
24 | CTAGGGGCATGGACCGGTTTTCCCGGTAATCCGTATTTGTG (site CTAGGGGCTCA) | 1.23
25 | CTAGTAACATGGACCGGTTTTCCCGGTAATCCGTATTTGGA (site CTAATAACTTC) | 1.33
26 | CTAGTAACATGGACCGGTTTTCCCGGTAATCCGTATTTGGA (site CTACTAACTTC) | 0.119
27 | CTAGTAACATGGACCGGTTTTCCCGGTAATCCGTATTTGGA (site CTAGTAACTTC) | 1.98
28 | CTAGTAACATGGACCGGTTTTCCCGGTAATCCGTATTTGGA (site CTATTAACTTC) | 0.00934
29 | CTAGTACCATGGACCGGTTTTCCCGGTAATCCGTATTTGAT (site CTAGTACCTAT) | 0
30 | CTAGTACCATGGACCGGTTTTCCCGGTAATCCGTATTTGAT (site CTAGTATCTGT) | 1.35
31 | CTAGTAGCATGGACCGGTTTTCCCGGTAATCCGTATTTGCC (site CTAGTAGCTGG) | 1.64
32 | CTAGTAGCATGGACCGGTTTTCCCGGTAATCCGTATTTGCC (site CTAGTATCTGT) | 0
33 | CTAGTATCATGGACCGGTTTTCCCGGTAATCCGTATTTGCC (site CTAGTATCTGA) | 2.78
34 | CTAGTATCATGGACCGGTTTTCCCGGTAATCCGTATTTGCC (site CTAGTATCTGC) | 2.28
35 | CTAGTATCATGGACCGGTTTTCCCGGTAATCCGTATTTGCC (site CTAGTATCTGG) | 3.09
36 | CTAGTATCATGGACCGGTTTTCCCGGTAATCCGTATTTGCC (site CTAGTATCTGT) | 2.66
37 | CTAGTGTCATGGACCGGTTTTCCCGGTAATCCGTATTTGAT (site CTAGTATCTGT) | 1.55
38 | CTAGTGTCATGGACCGGTTTTCCCGGTAATCCGTATTTGAT (site CTAGTGTCTAT) | 2.25

Row | Sequence | recombinant UMI read abundance (log10)
39 | CTAGTGTCATGGACCGGTTTTCCCGGTAATCCGTATTTGGC (site CTAGTATCTGT) | 1.29
40 | CTAGTGTCATGGACCGGTTTTCCCGGTAATCCGTATTTGGC (site CTAGTGTCTGC) | 2.17
41 | CTAGTGTCATGGACCGGTTTTCCCGGTAATCCGTATTTGGT (site CTAGTGTCTAC) | 2.6
42 | CTATACACATGGACCGGTTTTCCCGGTAATCCGTATTTGCT (site CTATACACTAG) | 2.38
43 | CTATACACATGGACCGGTTTTCCCGGTAATCCGTATTTGCT (site CTCTACACTAG) | 1.53
44 | CTATACACATGGACCGGTTTTCCCGGTAATCCGTATTTGCT (site CTGTACACTAG) | 0.705
45 | CTATACACATGGACCGGTTTTCCCGGTAATCCGTATTTGCT (site CTTTACACTAG) | 0.92
46 | CTATACTCATGGACCGGTTTTCCCGGTAATCCGTATTTGTT (site CTATACTCTAA) | 3.11
47 | CTATATACATGGACCGGTTTTCCCGGTAATCCGTATTTGAC (site CTATATACTGT) | 3.02
48 | CTATCAACATGGACCGGTTTTCCCGGTAATCCGTATTTGCT (site CGATCATCTAG) | 0.00622
49 | CTATCAACATGGACCGGTTTTCCCGGTAATCCGTATTTGCT (site CTATCAACTAG) | 1.92
50 | CTATCATCATGGACCGGTTTTCCCGGTAATCCGTATTTGGT (site CGATCATCTAG) | 0
51 | CTATCATCATGGACCGGTTTTCCCGGTAATCCGTATTTGGT (site CTATCATCTAC) | 0.706
52 | CTATCCTCATGGACCGGTTTTCCCGGTAATCCGTATTTGAA (site CTATCCTCTTT) | 2.6
53 | CTATTCCCATGGACCGGTTTTCCCGGTAATCCGTATTTGCT (site CAATTCCCTAG) | 0.77
54 | CTATTCCCATGGACCGGTTTTCCCGGTAATCCGTATTTGCT (site CCATTCCCTAG) | 1.43
55 | CTATTCCCATGGACCGGTTTTCCCGGTAATCCGTATTTGCT (site CGATTCCCTAG) | 0.475
56 | CTATTCCCATGGACCGGTTTTCCCGGTAATCCGTATTTGCT (site CTATTCCCTAG) | 0.845
57 | CTCAACACATGGACCGGTTTTCCCGGTAATCCGTATTTGCT (site CTCAACACTAG) | 2
